Measurements published in patent publication US7714014B2, “Targeting GLI proteins in human cancer by small molecules” (The Regents of the University of California, priority 2005, dated 2010).

How the values were obtained:
[1] = test system: Dvl-3 and cytosolic β-catenin in HT29 tumor; experiment: Western blot of cytosolic proteins from xenograft tumors; format: in vivo, mouse; conditions: HT29 xenograft tumor (negative control)
Protocol: (§1) To examine whether the lead compound FN1-8 suppressed tumor growth through inhibition of the Wnt signaling pathway in vivo, Western blot analysis of cytosolic proteins isolated from the H460 and HT29 xenograft tumors was performed. GAPDH served as a control. This Western Blot analysis was performed using a “pooled” tumor from two randomly selected mice of each group with reasonable size tumors.

[2] = test system: Dvl-3 and cytosolic beta-catenin in H460 tumor; experiment: as above; format: in vivo, mouse
Protocol: as §1

[3] = test system: SK-Mel-28 (melanoma); experiment: Apoptosis analysis (Annexin V FITC, flow cytometry); format: cell-based, human
Protocol: (§2) Apoptosis was analyzed by using an Annexin V FITC Apoptosis Detection Kit (Biosource, Camarillo, Calif.), according to the manufacturer's protocol. After treatment with different small molecule compounds at various concentrations for about 3 days, cells were harvested by trypsinization, stained and immediately analyzed by flow cytometry (FACScan; Decton Dickinson, Franklin Lake, N.J.). Early apoptotic cells with exposed phosphatidylserine but intact cell membranes will bind to Annexin V-FITC, but not propidium iodide (PI). Cells in necrotic or late apoptotic stages will be labeled with both Annexin V-FITC and PI. “% apoptotic cells” or “% apoptosis” refers to the combined early and late apoptotic cells.
(§3) Dose titration experiments of small molecule compound FN1-8 was performed using the melanoma cell lines A375, G361, SK-Mel-2, SK-Mel-5, and SK-Mel-28. A 375 cells were plated in 6-well plates and incubated with DM SO (control) or 2 μM, 5 μM, 10 μM, 20 μM, and 40 μM of FN1-8, respectively, for 3 days. A dramatic and dose-dependent cell killing in this cell line was observed when FN1-8 was added at 10 μM or more (data not shown). […] After 4 days of incubation with 20 μM FN1-8, approximately 20% of the Malme-3M cells, 28% of SK-Mel-2 cells, 36% of SK-Mel-5 cells, 41% of A375 cells, and 17% of G361 cells underwent apoptosis, while less than 3% of normal skin fibroblast cells underwent apoptosis under the same conditions (Table 3).

[4] = test system: Malme-3 (normal skin cells); experiment: as above; format: cell-based, human; conditions: 10 μM
Protocol: as §2, §3

[5] = test system: SK-Mel-5 (melanoma); experiment: as above; format: cell-based, human
Protocol: as §2, §3

[6] = test system: A375 (melanoma); experiment: as above; format: cell-based, human
Protocol: as §2, §3

[7] = test system: G361 (melanoma); experiment: as above; format: cell-based, human
Protocol: as §2, §3

[8] = test system: Malme-3M (melanoma); experiment: as above; format: cell-based, human; conditions: 10 μM
Protocol: as §2, §3

[9] = test system: SK-Mel-2 (melanoma); experiment: as above; format: cell-based, human
Protocol: as §2, §3

[10] = test system: human glioma cell line U87; experiment: Cell survival assay (crystal violet); format: cell-based; conditions: U87, 50 μM
Protocol: (§4) Typically, the small molecule compounds of the present invention were dissolved in DMSO at a concentration of 30 mM. The small molecule compounds were then tested under cell culture conditions at different concentrations ranging from 0, 10, 30, 50, to 100 uM. To determine cell survival after treatment, the cells were incubated with the small molecule compounds in 6-well plates for about 3 days. After removal of the cell culture medium, 1-ml of 0.5% crystal violet solution (prepared in 20% ethanol and 20% methanol) was added to stain the cells for 5 min. Then the crystal violet solution was rinsed clean with tap water. Cell survival was estimated based on the density of crystal stained plates.
The cell-based cytotoxicity assay described herein was used to determine the effect of small molecule compounds FN1-5 and FN1-8 in the human glioma cell line U87. Viability of U87 cells was analyzed after treatment with 30 and 50 μM FN1-5 and 10, 30, and 50 μM FN1-8.

[11] = test system: NSCLC cell lines H1299 and A549, colon cancer cell lines SW480 and HCT116; experiment: Cell survival assay (crystal violet), initial screening; format: cell-based, human; conditions: 100 μM, all cancer cell lines tested
Protocol: as §4
Initial screening of small molecule compounds of the present invention was performed using the cell-based assays described herein. […] Two NSCLC cell lines, H1299 and A549, and two colon cancer cell lines, SW480 and HCT116, were incubated with small molecule compounds FN1-1, FN1-2, FN1-3; FN1-5 and FN2-1 at a concentration of 100 μM. DMSO was used as a control. […] This assay identified the small molecule compound FN1-5 inhibiting GLI transcription activation domain (TAF-binding domain, TAFbd), as an active hit compound.

[12] = Pharmacokinetic analysis in mice (oral administration); format: in vivo, mouse
Protocol: In another pharmacokinetic study, three mice were orally administrated with the small molecule compound FN1-5 at the dose of 30 mg/kg body weight. Then, as described above, plasma was collected from the tail-vein of each mouse and the concentration of FN1-5 in each plasma sample was determined by mass spectroscopy.
Similarly, the pharmacokinetic properties of orally administered small molecule compound FN1-8 were analyzed (FIG. 22B). Comparing the uptake of FN1-8 to FN1-5, the uptake of FN1-5 after oral administration seems to be better, by about 7 fold.

In the case of `O=C(NCCc1ccc(O)cc1)C1C(c2ccccc2)=NN(c2ccccc2)C1c1ccccc1` (stereo not shown) [FN1-8, N-(2-(4-Hydroxyphenyl)ethyl)-1,3,5-triphenyl-4,5-dihydro-pyrazole-4-carboxyamide], the “Dvl-3 and cytosolic β-catenin levels in tumor” value [1] is reported as “no noticeable changes”, the “Dvl-3 and cytosolic beta-catenin expression in tumor” value [2] is reported as “down-regulated” and the “% of apoptotic cells” value ([3]; SK-Mel-28, 10 μM) is reported as 7.7%. The “% of apoptotic cells” value ([3]; SK-Mel-28, 20 μM) was 11.8%, the “% of apoptotic cells” value [4] was 2.1% and the “% of apoptotic cells” value ([5]; SK-Mel-5, 10 μM) was 7.9%. For the same compound, the “% of apoptotic cells” value ([5]; SK-Mel-5, 20 μM, 4 days of incubation) was 34.9%, the “% of apoptotic cells” value ([6]; A375, 10 μM) was 35.8% and the “% of apoptotic cells” value ([6]; A375, 20 μM, 4 days of incubation) was 39.7%. The “% of apoptotic cells” value ([7]; G361, 10 μM) was 7.5%, the “% of apoptotic cells” value ([7]; G361, 20 μM, 4 days of incubation) was 15.5% and the “% of apoptotic cells” value [8] was 10.5%. The “% of apoptotic cells” value ([9]; SK-Mel-2, 10 μM) was 9%, the “% of apoptotic cells” value ([9]; SK-Mel-2, 20 μM, 4 days of incubation) was 25.3% and the cell killing [10] was “dramatic cell killing”.

With `O=C(NCCCCCO)C1C(c2ccccc2)=NN(c2ccccc2)C1c1ccccc1` (stereo not shown) [FN1-5, N-(5-Hydroxypentyl)-1,3,5-triphenyl-4,5-dihydro-pyrazole-4-carboxyamide] the cell killing effect [11] was “dramatic cell killing effect”, the “uptake of FN1-5 relative to FN1-8” value ([12]; oral administration) was “about 7 fold” and the “time of uptake into plasma” value ([12]; oral, 30 mg/kg) was at most 10 min. For the same compound, the “time within which plasma concentration diminishes” value ([12]; oral, 30 mg/kg) was at most 24 h.
